US20020006399A1, “Therapeutic uses of hormonal manipulation using combinations of various agents to treat atherosclerosis” (priority 1999, published 2002)
Where a name gives a salt, the structure may show the parent alone.

Columns and labels:
Assay type in all cases: in vivo
[1] = test system: prostate cancer patients; experiment: Retrospective chart review: cardiac events in prostate cancer patients treated with LHRH inhibitors vs controls; conditions: for Events/Year: cardiac events per subject year, Total Control .0338; for observed difference between the proportions vs Total Control: events/year, treated group vs Total Control (Groups 1 + 4); for Cardiac Events: heart attack, coronary artery bypass or angioplasty, on drug at least one year, Total Control 32 events over 948 subject years; for heart attacks compared with controls: treated patients vs controls
Method: Another retrospective study was performed which compared the rates of patient reported heart attack in several groups 1-control group of males entering the urology office for any routine complaint. 2-a group of prostate cancer patients treated with Leuprolide acetate, a LHRH inhibitor. 3-a group of prostate cancer patients treated with Goserelin acetate (Zoladex), a LHRH inhibitor. 4-a group of prostate cancer patients not treated with hormonal manipulation (neither Leuprolide or Goserelin). 5-all patients on LHRH inhibitors (group 2+group 3). The patients on either Leuprolide or Goserelin were treated with the recommended doses indicated for the treatment of prostatic carcinoma, at either one or three month intervals depending on the preparation used. Leuprolide was dosed at 7.5 mg monthly (single intramuscular injection) or at 22.5 mg at 3 month intervals (single intramuscular injection). Goserelin was dosed at 3.6 mg monthly or at a dose of 10.8 mg at 3 month intervals (subcutaneous injection). The various groups of office patients were evaluated by chart […]. In groups 2 and 3 only those on drug for at least one year were considered. Cardiac event is defined either the history of a heart attack or occurrence of coronary artery bypass or angioplasty. In control groups only events occurring in the 3 years prior to the questionnaire are charted.

[2] = test system: patients diagnosed with benign prostatic hypertrophy; experiment: First retrospective study: cardiac events (cardiac bypass or heart attack) in BPH patients on finasteride vs alpha-blocker control; conditions: finasteride treated group of 22 subjects, 61 subject-years, on drug at least a year, 5 mg oral tablet a day; control 7 events over 288 subject-years
Method: Finasteride was being administered at a dosage of a single oral 5 mg tablet a day. This is the same tablet used in treatment of BPH as disclosed in U.S. Pat. No. 5,175,155 and such dosage applies in the present invention. However, use of a 2 mg or 10 mg oral tablet is contemplated. Two studies were undertaken to determine whether finasteride was, in fact, effective in lessening the incidence of heart disease and other complications of atherosclerosis. The result of the first study is as follows; A list of patients diagnosed with benign prostatic hypertrophy in late 1992 and 1993 was located. Treatment had been initiated with either finasteride or another oral agent of a different class (alpha-blocker). Patients were then contacted and an interval history was taken. In the control group of 45 subjects, 7 events (either cardiac bypass or heart attack) occurred in 6 subjects over 288 subject-years. In the finasteride treated group of 22 subjects there were no events over 61 subject-years. […] (95% Cl equal to 0.65% to 4.2%).

[3] = test system: patients of the practice; experiment: Second study: questionnaire on cardiac events in patients of the practice treated with finasteride
Method: Finasteride was being administered at a dosage of a single oral 5 mg tablet a day. This is the same tablet used in treatment of BPH as disclosed in U.S. Pat. No. 5,175,155 and such dosage applies in the present invention. However, use of a 2 mg or 10 mg oral tablet is contemplated. Two studies were undertaken to determine whether finasteride was, in fact, effective in lessening the incidence of heart disease and other complications of atherosclerosis. In the second study patients of the practice were given a questionnaire. Various patients had been treated with finasteride for varying lengths of time. Only those on the drug for at least one year were considered. The average time on finasteride was 3 years. The number of cardiac events occurring in the patients taking finasteride was only 4 events over 242 patient-years. (1.6%/yr.) In the control group 26 events occurred in the 3 years prior over 732 patient-years. (3.5%/yr.) The 45% decrease observed in cardiac events is believed to be significant. (90% Cl equal to 1.4% to 3.7%).

[4] = test system: patients treated for benign prostatic hypertrophy; experiment: Clinical observation of patients given finasteride for benign prostatic hypertrophy; conditions: finasteride single oral 5 mg tablet a day for BPH
Method: Finasteride was being administered at a dosage of a single oral 5 mg tablet a day. This is the same tablet used in treatment of BPH as disclosed in U.S. Pat. No. 5,175,155 and such dosage applies in the present invention. However, use of a 2 mg or 10 mg oral tablet is contemplated.

Row | Compound | Events/Year [1] | observed difference between the proportions vs Total Control [1] | Cardiac Events [1] | heart attacks compared with controls [1] | events (either cardiac bypass or heart attack) [2] | cardiac event rate ([3]; 4 events over 242 patient-years, control 3.5%/yr) [%/yr] | decrease observed in cardiac events ([3]; finasteride vs control group) [%] | number of cardiac events ([3]; over 242 patient-years, on drug at least one year, average 3 years, control 26 events over 732 patient-years) [events] | incidence of atherosclerosis and heart disease (observation) [4]
1 | CC(C)C[C@H](NC(=O)[C@@H](COC(C)(C)C)NC(=O)[C@H](Cc1ccc(O)cc1)NC(=O)[C@H](CO)NC(=O)[C@H](Cc1c[nH]c2ccccc12)NC(=O)[C@H](Cc1cnc[nH]1)NC(=O)[C@@H]1CCC(=O)N1)C(=O)N[C@@H](CCCNC(=N)N)C(=O)N1CCC[C@H]1C(=O)NNC(N)=O [Zoladex, pyro-Glu-His-Trp-Ser-Tyr-D-Ser(Bu)-Leu-Arg-Pro-Azgly-NH2 acetate] | .0161 | 0.0177 | 1 | fewer heart attacks than controls |  |  |  |  | 
2 | CCNC(=O)[C@@H]1CCCN1C(=O)[C@H](CCCNC(=N)N)NC(=O)[C@H](CC(C)C)NC(=O)[C@@H](CC(C)C)NC(=O)[C@H](Cc1ccc(O)cc1)NC(=O)[C@H](CO)NC(=O)[C@H](Cc1c[nH]c2ccccc12)NC(=O)[C@H](Cc1c[nH]cn1)NC(=O)[C@@H]1CCC(=O)N1 [Lupron, 5-oxo-L-prolyl-L-histidyl-L-tryptophyl-L-seryl-L-tyrosyl-D-leucyl-L-leucyl-L-arginyl-N-ethyl-L-prolinamide acetate (salt)] | .00847 | 0.253 | 1 | fewer heart attacks than controls |  |  |  |  | 
3 | CC(C)(C)NC(=O)[C@H]1CC[C@H]2[C@@H]3CC[C@H]4NC(=O)C=C[C@]4(C)[C@H]3CC[C@]12C [finasteride, 4-azaandrost-1-ene-17-carboxamide, N-(1,1-dimethylethyl)-3oxo-(5alpha 17beta)-] |  |  |  |  | no events | 1.6 | 45 | 4 | lower incidence of atherosclerosis and heart disease
